Results published in article PMC3006138, “Fexinidazole – A New Oral Nitroimidazole Drug Candidate Entering Clinical Development for the Treatment of Sleeping Sickness” (PLoS Neglected Tropical Diseases, 2010).
Where two headings read alike, the source gives them in different places.

Experiment: Rat single-dose IV and oral pharmacokinetics
Assay type: in vivo
Conditions: for AUC(0-t): read-out: AUC0-t(last); for half-life: read-out: t1/2,z (converted)
Protocol: METHODS […] Fexinidazole was given as IV and oral administrations to male Sprague Dawley rats according to the following scheme Rat ID Route Dose (mg/kg) Formulation […] IV dose was administered via the tail vein, the oral dose was administered by gastric gavage. 4.2. […] On the day of dosing, approximately 0.3 mL of blood/sampling time were taken from the cannula using heparinized syringes, transferred immediately into tubes (pre-cooled in an ice/water bath) and centrifuged at […] The separated plasma was split into two aliquots, then stored at -80°C until analysis. […] 4.3. Bioanalytical Method Plasma concentrations of Fexinidazole were determined by a LC-MS-MS method. The lower limit of the bioanalytical method was 5.12 ng/mL. […] Details of the bioanalytical method were reported in Appendix 2 and the analytical performance was reported in Appendix 3. 4.4. […] For the calculations, pre-dose concentrations were set equal to C0.033 and equal to zero after IV and oral administrations, respectively. […] regression line. […] Absolute bioavailability was calculated from the ratio of the average oral to IV dose- normalized AUC0-∞ values. […] Plasma concentrations and pharmacokinetic parameters of Fexinidazole were reported to three significant figures. 5. RESULTS Mean ±SD systemic exposure parameters of Fexinidazole after IV and oral administrations of the compound are reported in Table 1. […] This side […] After oral administration, detectable concentrations of Fexinidazole were measured at the […] Mean ±SD maximal plasma concentration of Fexinidazole was 147 ±37 ng/mL, achieved 2 h post dosing. The concentrations of the compound were detectable up to the end of the experiment (8 h). […] Mean ±SD AUC0-∞ was 662 ±106 ng⋅h/mL. […] 6. CONCLUSIONS After both doses, low variability of the pharmacokinetic parameters of Fexinidazole was observed. […] Report Amendment for Study 0327-2007 2. […] METHODS […] The lower limit of the bioanalytical method was 5.00 ng/mL for both compounds. […] Details of the bioanalytical method are reported in Table 1 and the analytical performances of calibration standards are reported in Tables 2-5. 3.2.

[1] = Sprague Dawley, plasma, fexinidazole 5 mg/kg IV, male SD rats, read-out: Cmax (C0.033 for parent)
[2] = male, Sprague Dawley, plasma, fexinidazole 5 mg/kg IV
[3] = male, Sprague Dawley, plasma, fexinidazole 10 mg/kg oral
[4] = male, Sprague Dawley, plasma, fexinidazole 10 mg/kg oral, read-out: Cmax

| Compound | Cmax [1] [ng/mL] | clearance (male, Sprague Dawley, plasma, 5 mg/kg IV) [mL/min/kg] | Vd (male, Sprague Dawley, plasma, 5 mg/kg IV, read-out: Vss) [L/kg] | AUC(0-t) [2] [ng·h/mL] | half-life [2] [h] | Tmax [3] [h] | AUC(0-t) [3] [ng·h/mL] | Cmax [4] [ng/mL] | half-life [3] [h] | AUC(0-inf) (male, Sprague Dawley, plasma, iv, 5 mg/kg, fexinidazole 5 mg/kg IV, read-out: AUC0-∞) [ng·h/mL] | bioavailability (male, Sprague Dawley, plasma, oral, 10 mg/kg, oral 10 mg/kg vs IV 5 mg/kg, read-out: Absolute bioavailability F) [%] | AUC(0-inf) (male, Sprague Dawley, plasma, po, 10 mg/kg, fexinidazole 10 mg/kg oral, read-out: AUC0-∞) [ng·h/mL] | AUC(0-inf) (male, Sprague Dawley, plasma, po, 10 mg/kg, oral, normalized to 1 mg/kg, read-out: AUC0-∞, norm) [ng·h/mL] | Absolute bioavailability F (oral 10 mg/kg vs IV 5 mg/kg) [%] | Tmax [2] [h] |
| --- | --- | --- | --- | --- | --- | --- | --- | --- | --- | --- | --- | --- | --- | --- | --- |
| CSc1ccc(OCc2ncc([N+](=O)[O-])n2C)cc1 [Fexinidazole, 1-methyl-2-((p-(methylthio)phenoxy)methyl)-5-nitroimidazole] | 3660 ± 217 | 76.2 | 4.69 | 1160 | 1.71 | 2 | 631 | 147 ± 36.6 | 1.72 | 1200 ± 26.5 | 30 | 662 ± 106 | 65.1 | 29.7 |  |
| Cn1c([N+](=O)[O-])cnc1COc1ccc([S+](C)[O-])cc1 (centres unmarked) [Fexinidazole sulfoxide] | 3070 |  |  | 9440 |  | 2 | 16200 | 3520 |  |  |  |  |  |  | 1 |
| Cn1c([N+](=O)[O-])cnc1COc1ccc(S(C)(=O)=O)cc1 [Fexinidazole sulfone] | 2090 |  |  | 9590 |  | 6 | 14300 | 2660 |  |  |  |  |  |  | 5.33 |
